Assay results as given in patent publication US12551573B2, “Compositions and methods for the targeting of PCSK9” (Scribe Therapeutics Inc., priority 2022, dated 2026).

Test system: human PCSK9 locus
Assay: Secreted PCSK9 by ELISA (normalized to total cell count) in Huh7 cells transfected with mRNA and gRNA
Type: cell-based
Conditions: paired with LTRP5-ADD-ZIM3 mRNA, Huh7 cells, 6 days post-transfection; for Secreted PCSK9: normalized to total cell count; for Percent reduction in PCSK9 secretion: relative to non-targeting gRNA control; for Average percent reduction in PCSK9 secretion: averaged from the two doses
Description: To assess PCSK9 secretion, seeded Huh7 cells were transfected with mRNA encoding a catalytically-active CasX 676, dXR1, or LTRP5-ADD-ZIM3 and a gRNA with scaffold 316 and spacer targeting either the B2M or PCSK9 locus. Media supernatant was harvested at 6, 18, 36, and 87 days post-transfection to assess level of PCSK9 secretion by ELISA. Levels of PCSK9 secretion were normalized to total cell count. As an additional control, PCSK9 secretion was also measured in the media supernatant harvested from wells containing untreated, naïve cells.
The following three human hepatocyte cancer cell lines were used in this experiment: HepG2 cells, Hep3B cells, and Huh7 cells. ˜15,000 cells of each cell line were seeded per well; the next day, seeded cells were transfected with mRNA encoding a catalytically-active CasX 676, dXR1, or LTRP5-ADD-ZIM3 and a gRNA with scaffold 316 and spacer targeting either the B2M or PCSK9 locus (see Table 23 for specific spacers and sequences). Media supernatant was harvested at 4 days post-transfection to assess level of PCSK9 secretion by ELISA, and levels of PCSK9 secretion were normalized to total cell count and illustrated in FIGS. 11A-11C. Culturing of treated Huh7 cells continued, and media supernatant was harvested at 14 and 27 days post-transfection for measuring PCSK9 secretion by ELISA. As an additional experimental control, PCSK9 secretion was also measured in the media supernatant harvested from wells containing untreated, naïve cells.
To assess PCSK9 secretion, seeded Huh7 cells were co-transfected with mRNA encoding for LTRP5-ADD-ZIM3 and a gRNA with scaffold 316 and spacer targeting the PCSK9 locus using Lipofectamine™ 3000. Two doses of total RNA input at a 2:1 mass ratio of mRNA to gRNA were used for screening: 50 ng mRNA: 25 ng gRNA and 25 ng mRNA: 12.5 ng gRNA. Media supernatant was harvested at 6 days post-transfection to assess level of PCSK9 secretion by ELISA (Table 74). Levels of PCSK9 secretion were normalized to total cell count. As an additional control, PCSK9 secretion was also measured in the media supernatant harvested from cells transfected with mRNA encoding for mScarlet.

Substance | Secreted PCSK9 (25 ng mRNA:12.5 ng gRNA) [ng/mL] | Percent reduction in PCSK9 secretion (25 ng mRNA:12.5 ng gRNA) [%] | Secreted PCSK9 (50 ng mRNA:25 ng gRNA) [ng/mL] | Percent reduction in PCSK9 secretion (50 ng mRNA:25 ng gRNA) [%] | Average percent reduction in PCSK9 secretion [%]
GUGGGCAGCGAGGAGUCCAC (listed as RNA, chemistry not given here) [spacer 6.144, Promoter] | 29 | 59.29 | 23.42 | 71.53 | 65.41
GUGUUUCCUGGGUCCACCUU (listed as RNA, chemistry not given here) [spacer 6.147, Promoter] | 37.43 | 47.46 | 53.6 | 34.85 | 41.15
GUUAAUGUUUAAUCAGAUAG (listed as RNA, chemistry not given here) [spacer 6.153, Promoter] | 86.58 | 21.52 | 73.23 | 10.99 | 5.27
Non-targeting (guide CGAGACGTAATTACGTCTCG; chemistry not given here) | 71.24 | 0 | 82.28 | 0 | 0
TG-06-002 (guide ACCGCUGCGCCAAGGUGCGG; listed as RNA, chemistry not given here) | 83.15 | 16.71 | 81.95 | 0.4 | 8.16
TG-06-249 (guide AAACCAAAUCGGAACCCACU; listed as RNA, chemistry not given here) | 82.36 | 15.61 | 87.36 | 6.18 | 10.89
TG-06-250 (guide GAUUUGGUUUGGAAAACAUG; listed as RNA, chemistry not given here) | 80.42 | 12.87 | 86.92 | 5.64 | 9.26
TG-06-251 (guide CUCCAGGCCCUCCACCCUCC; listed as RNA, chemistry not given here) | 44.62 | 37.37 | 36.8 | 55.28 | 46.32
TG-06-342 (guide AAUUACAGGCAACAGGAAGG; listed as RNA, chemistry not given here) | 75.23 | 5.6 | 51.55 | 37.34 | 15.87
TG-06-343 (guide CCCCAUGUAAGAGAGGAAGU; listed as RNA, chemistry not given here) | 75.55 | 6.04 | 62.8 | 23.67 | 8.82
TG-06-344 (guide CAGUUUCUGCCUCGCCGCGG; listed as RNA, chemistry not given here) | 76.43 | 7.28 | 82.29 | 0.01 | 3.64
TG-06-345 (guide GCCUCGCCGCGGCACAGGUG; listed as RNA, chemistry not given here) | 85.68 | 20.26 | 81.22 | 1.28 | 9.49
